Measurements: US20260125374A1, “PI3K-ALPHA INHIBITORS AND METHODS OF MAKING AND USING THE SAME” (Relay Therapeutics, Inc., priority 2021, published 2026)

Test: Salt screening (XRPD, chiral purity of hits)
Assay type: physicochemical
Details: for Chiral purity of salt screening solid: slurry
Method: Based on the pKa of I-1 free form, 23 counter ions were selected as salt/cocrystal forming agents. Methanol, acetone and isopropyl acetate were used as screening solvents. 1.0 equivalent of selected counter ions/coformers was applied for salt screening. Slurry equilibration, slow evaporation and anti-solvent addition were used as crystallization methods. In total, about 70 screening experiments were conducted.
About 50 mg of I-1 Form A were added to a suitable amount of solvent and 1.0 equivalent of counter ions were added under stirring at 50° C. for 2 hours and then at 25° C. for at least 12 hours. MeOH, acetone and IPAc were used as screening solvents.
Obtained suspensions were taken out and centrifuged. Solids obtained were analyzed by XRPD and salt screening results were summarized in Table 5.1, Table 5.2, and Table 5.3.

[1] = 1.0 equiv. naphthalene-1,5-disulfonic acid, MeOH
[2] = 1.0 equiv. naphthalene-1,5-disulfonic acid, MeOH/water(9:1, v/v)
[3] = 1.0 equiv. naphthalene-1,5-disulfonic acid, MeOH, dried at 50° C. for 21 h
[4] = crystalline hits of salt screening, listed as I-1 Form A

N#Cc1c(-c2cc(NC(=O)c3cc(F)cc(C(F)(F)F)c3)c3c(c2)C(=O)N[C@H]3c2cc(F)ccc2Cl)ccc2ncnn12 [Compound I-1, (R)-N-(3-(2-chloro-5-fluorophenyl)-6-(5-cyano-[1,2,4]triazolo[1,5-a]pyridin-6-yl)-1-oxoisoindolin-4-yl)-3-fluoro-5-(trifluoromethyl)benzamide]
Salt screening result (slurry crystallization) (1.0 equiv. L-tartaric acid, Isopropyl acetate): − (I-1 Form A) (Free form, counter ions, or physical mixtures)
Salt screening result (slurry crystallization) (1.0 equiv. L-tartaric acid, MeOH): − (I-1 Form A) (Free form, counter ions, or physical mixtures)
Salt screening result (slurry crystallization) (1.0 equiv. citric acid, Acetone): thin suspension
Salt screening result (anti-solvent) (1.0 equiv. citric acid, Acetone/MTBE): −(I-1 Form B) (Free form, counter ions, or physical mixtures)
Salt screening result (slurry crystallization) (1.0 equiv. citric acid, Isopropyl acetate): − (I-1 Form A) (Free form, counter ions, or physical mixtures)
Salt screening result (slurry crystallization) (1.0 equiv. citric acid, MeOH): − (I-1 Form A) (Free form, counter ions, or physical mixtures)
Salt screening result (slurry crystallization) (1.0 equiv. fumaric acid, Acetone): − (physical mixtures (Free form, counter ions, or physical mixtures)
Salt screening result (slurry crystallization) (1.0 equiv. fumaric acid, Isopropyl acetate): − (physical mixtures (Free form, counter ions, or physical mixtures)
Salt screening result (slurry crystallization) (1.0 equiv. fumaric acid, MeOH): − (I-1 Form A) (Free form, counter ions, or physical mixtures)
Salt screening result (slurry crystallization) (1.0 equiv. gentisic acid, Acetone): thin suspension
Salt screening result (anti-solvent) (1.0 equiv. gentisic acid, Acetone/MTBE): −(I-1 Form B) (Free form, counter ions, or physical mixtures)
Salt screening result (slurry crystallization) (1.0 equiv. gentisic acid, Isopropyl acetate): − (I-1 Form A) (Free form, counter ions, or physical mixtures)
Salt screening result (slurry crystallization) (1.0 equiv. gentisic acid, MeOH): − (I-1 Form A) (Free form, counter ions, or physical mixtures)
Salt screening result (slurry crystallization) (1.0 equiv. isonicotinamide, Acetone): thin suspension
Salt screening result (anti-solvent) (1.0 equiv. isonicotinamide, Acetone/MTBE): −(I-1 Form B) (Free form, counter ions, or physical mixtures)
Salt screening result (slurry crystallization) (1.0 equiv. isonicotinamide, Isopropyl acetate): − (physical mixtures (Free form, counter ions, or physical mixtures)
Salt screening result (slurry crystallization) (1.0 equiv. isonicotinamide, MeOH): − (I-1 Form A) (Free form, counter ions, or physical mixtures)
Salt screening result (slurry crystallization) (1.0 equiv. maleic acid, Acetone): thin suspension
Salt screening result (anti-solvent) (1.0 equiv. maleic acid, Acetone/MTBE): −(I-1 Form B) (Free form, counter ions, or physical mixtures)
Salt screening result (slurry crystallization) (1.0 equiv. maleic acid, Isopropyl acetate): − (I-1 Form A) (Free form, counter ions, or physical mixtures)
Salt screening result (slurry crystallization) (1.0 equiv. maleic acid, MeOH): − (I-1 Form A) (Free form, counter ions, or physical mixtures)
Salt screening result (slurry crystallization) (1.0 equiv. malonic acid, Acetone): thin suspension
Salt screening result (anti-solvent) (1.0 equiv. malonic acid, Acetone/MTBE): −(I-1 Form B) (Free form, counter ions, or physical mixtures)
Salt screening result (slurry crystallization) (1.0 equiv. malonic acid, Isopropyl acetate): − (I-1 Form A) (Free form, counter ions, or physical mixtures)
Salt screening result (slurry crystallization) (1.0 equiv. malonic acid, MeOH): − (I-1 Form A) (Free form, counter ions, or physical mixtures)
Salt screening result (slurry crystallization) (1.0 equiv. methanesulfonic acid, Acetone): thin suspension
Salt screening result (anti-solvent) (1.0 equiv. methanesulfonic acid, IPAc/MTBE): thin suspension
Salt screening result (slurry crystallization) (1.0 equiv. methanesulfonic acid, Isopropyl acetate): thin suspension
Salt screening result (slurry crystallization) (1.0 equiv. naphthalene-1,5-disulfonic acid, Acetone): thin suspension
Salt screening result (slurry crystallization) (1.0 equiv. naphthalene-1,5-disulfonic acid, Isopropyl acetate, 3 days): 3 days: AF;
Salt screening result (slurry crystallization) (1.0 equiv. naphthalene-1,5-disulfonic acid, Isopropyl acetate, for another 3 days): 3 days: AF
Salt screening result (slurry crystallization) [1]: + (I-1 Form A ) (Salt hits)
Salt screening result (slurry crystallization) [2]: − (physical mixtures of (Free form, counter ions, or physical mixtures)
Crystallinity of salt screening solid [3]: low crystallinity
Salt screening result (slurry crystallization) (1.0 equiv. naphthalene-2-sulfonic acid, Isopropyl acetate): thin suspension
Salt screening result (slurry crystallization) (1.0 equiv. nicotinamide, Acetone): thin suspension
Salt screening result (anti-solvent) (1.0 equiv. nicotinamide, Acetone/MTBE): −(I-1 Form B) (Free form, counter ions, or physical mixtures)
Salt screening result (slurry crystallization) (1.0 equiv. nicotinamide, Isopropyl acetate): − (physical mixtures (Free form, counter ions, or physical mixtures)
Salt screening result (slurry crystallization) (1.0 equiv. nicotinamide, MeOH): − (I-1 Form A (Free form, counter ions, or physical mixtures)
Salt screening result (slurry crystallization) (1.0 equiv. nicotinic acid, Acetone): − (physical mixtures (Free form, counter ions, or physical mixtures)
Salt screening result (slurry crystallization) (1.0 equiv. nicotinic acid, Isopropyl acetate): − (physical mixtures (Free form, counter ions, or physical mixtures)
Salt screening result (slurry crystallization) (1.0 equiv. nicotinic acid, MeOH): − (physical mixtures (Free form, counter ions, or physical mixtures)
Salt screening result (slurry crystallization) (1.0 equiv. phosphoric acid, Acetone): thin suspension
Salt screening result (anti-solvent) (1.0 equiv. phosphoric acid, Acetone/MTBE): −(I-1 Form B) (Free form, counter ions, or physical mixtures)
Salt screening result (slurry crystallization) (1.0 equiv. phosphoric acid, Isopropyl acetate): − (I-1 Form A) (Free form, counter ions, or physical mixtures)
Salt screening result (slurry crystallization) (1.0 equiv. phosphoric acid, MeOH): − (I-1 Form A) (Free form, counter ions, or physical mixtures)
Salt screening result (slurry crystallization) (1.0 equiv. sodium hydroxide, Acetone): thin suspension
Salt screening result (slurry crystallization) (1.0 equiv. sodium hydroxide, Isopropyl acetate, for another 3 days): another 3 days: AF
Salt screening result (slurry crystallization) (1.0 equiv. sodium hydroxide, MeOH): clear solution
Salt screening result (slurry crystallization) (1.0 equiv. sulfuric acid, Acetone): thin suspension
Salt screening result (anti-solvent) (1.0 equiv. sulfuric acid, Acetone/MTBE): thin suspension
Salt screening result (slurry crystallization) (1.0 equiv. sulfuric acid, Isopropyl acetate): thin suspension
Salt screening result (slurry crystallization) (1.0 equiv. sulfuric acid, MeOH): − (I-1 Form A) (Free form, counter ions, or physical mixtures)
Salt screening result (slurry crystallization) (1.0 equiv. theobromine, Acetone): − (physical mixtures (Free form, counter ions, or physical mixtures)
Salt screening result (slurry crystallization) (1.0 equiv. theobromine, Isopropyl acetate): − (physical mixtures (Free form, counter ions, or physical mixtures)
Salt screening result (slurry crystallization) (1.0 equiv. theobromine, MeOH): − (physical mixtures (Free form, counter ions, or physical mixtures)
Salt screening result (slurry crystallization) (1.0 equiv. theophylline, Acetone): − (physical mixtures (Free form, counter ions, or physical mixtures)
Salt screening result (slurry crystallization) (1.0 equiv. theophylline, Isopropyl acetate): − (physical mixtures (Free form, counter ions, or physical mixtures)
Salt screening result (slurry crystallization) (1.0 equiv. theophylline, MeOH): − (physical mixtures (Free form, counter ions, or physical mixtures)
Salt screening result (slurry crystallization) (Free form, Acetone): − (I-1 Form A) (Free form, counter ions, or physical mixtures)
Salt screening result (slurry crystallization) (Free form, Isopropyl acetate): − (I-1 Form A) (Free form, counter ions, or physical mixtures)
Salt screening result (slurry crystallization) (Free form, MeOH): − (I-1 Form A) (Free form, counter ions, or physical mixtures)
Chiral purity (by HPLC) [4]: 99.2%
Crystallinity (By XRPD) [4]: High
Chiral purity of salt screening solid [1]: Chiral purity: 100%
Chiral purity of salt screening solid [2]: Chiral purity: 99.3%
Chiral purity of salt screening solid [3]: Chiral purity: 100%
